Reference: ChEMBL document CHEMBL5608163, “Structure modification of anoplin for fighting resistant bacteria” (Eur J Med Chem, 2024)
In brackets after ≈: the same amount, converted by molar mass. Bridge positions count the residues as written; N and C are the ends. Square brackets hold non-standard residues; d marks the D form. Peptide text beside a SMILES is read from it. I, II: the chains in the order shown. * marks the point of attachment. ξ: configuration not given here. Tridecanoyl = CCCCCCCCCCCCC(=O)*; Lauroyl = CCCCCCCCCCCC(=O)*; Decanoyl = CCCCCCCCCC(=O)*; Nonanoyl = CCCCCCCCC(=O)*; Hexanoyl = CCCCCC(=O)*; ξK = NCCCCC(N)C(=O)O; Butyryl = CCCC(=O)*

Tests used:
Erythrocyte = assay: Hemolytic activity in human erythrocyte incubated for 70 mins by absorbance based assay; type: toxicity, cell-based; conditions: 1.167 h
Bacillus subtilis [1] = assay: Antibacterial activity against Bacillus subtilis ATCC 23857 assessed as reduction in bacterial cell growth incubated for 16 to 24 hrs by CLSI-protocol based Mueller-Hinton Broth micro-dilution method; type: functional; conditions: time 16-24 hrs
Escherichia coli [2] = assay: Antibacterial activity against Escherichia coli ATCC 25922 assessed as reduction in bacterial cell growth incubated for 16 to 24 hrs by CLSI-protocol based Mueller-Hinton Broth micro-dilution method; type: functional; conditions: time 16-24 hrs
Staphylococcus aureus [3] = assay: Antibacterial activity against Staphylococcus aureus ATCC 25923 assessed as reduction in bacterial cell growth incubated for 16 to 24 hrs by CLSI-protocol based Mueller-Hinton Broth micro-dilution method; type: functional; conditions: time 16-24 hrs
Pseudomonas aeruginosa [4] = assay: Antibacterial activity against Pseudomonas aeruginosa ATCC 27853 assessed as reduction in bacterial cell growth incubated for 16 to 24 hrs by CLSI-protocol based Mueller-Hinton Broth micro-dilution method; type: functional; conditions: time 16-24 hrs
Klebsiella pneumoniae [5] = assay: Antibacterial activity against Klebsiella pneumoniae ATCC 700603 assessed as reduction in bacterial cell growth incubated for 16 to 24 hrs by CLSI-protocol based Mueller-Hinton Broth micro-dilution method; type: functional; conditions: time 16-24 hrs
Bacillus subtilis [6] = assay: Antibacterial activity against Bacillus subtilis ATCC 23857 assessed as reduction in bacterial cell growth measured for 18 hrs by Mueller-Hinton broth based two-fold serial dilution method; type: functional
Escherichia coli [7] = assay: Antibacterial activity against Escherichia coli ATCC 25922 assessed as reduction in bacterial cell growth measured for 18 hrs by Mueller-Hinton broth based two-fold serial dilution method; type: functional
Klebsiella pneumoniae [8] = assay: Antibacterial activity against Klebsiella pneumoniae ATCC 700603 assessed as reduction in bacterial cell growth measured for 18 hrs by Mueller-Hinton broth based two-fold serial dilution method; type: functional
Staphylococcus aureus [9] = assay: Antibacterial activity against Staphylococcus aureus ATCC 25923 assessed as reduction in bacterial cell growth measured for 18 hrs by Mueller-Hinton broth based two-fold serial dilution method; type: functional
Pseudomonas aeruginosa [10] = assay: Antibacterial activity against Pseudomonas aeruginosa ATCC 27853 assessed as reduction in bacterial cell growth measured for 18 hrs by Mueller-Hinton broth based two-fold serial dilution method; type: functional

Compound	HC10 (Erythrocyte) [µM]	MIC (Bacillus subtilis [1]) [µM]	MIC (Escherichia coli [2]) [µM]	MIC (Staphylococcus aureus [3]) [µM]	MIC (Pseudomonas aeruginosa [4]) [µM]	MIC (Klebsiella pneumoniae [5]) [µM]	MIC (Bacillus subtilis [6]) [µM]	MIC (Escherichia coli [7]) [µM]	MIC (Klebsiella pneumoniae [8]) [µM]	MIC (Staphylococcus aureus [9]) [µM]	MIC (Pseudomonas aeruginosa [10]) [µM]
CCCCCCCCCC(=O)NCC(=O)N[C@@H](CC(C)C)C(=O)N[C@@H](CC(C)C)C(=O)N[C@@H](CCCCN)C(=O)N[C@@H](CCCNC(=N)N)C(=O)N[C@H](C(=O)N[C@@H](CCCCN)C(=O)N[C@H](C(=O)N[C@@H](CC(C)C)C(=O)N[C@@H](CC(C)C)C(N)=O)[C@@H](C)O)[C@@H](C)CC (Decanoyl-GLLKRIKTLL-NH2)	16.36	8 (≈ 10.5 µg/mL)	16 (≈ 20.9 µg/mL)	8 (≈ 10.5 µg/mL)	8 (≈ 10.5 µg/mL)	16 (≈ 20.9 µg/mL)	–	–	–	–	–
CCCCCCCCCCCC(=O)NCC(=O)N[C@@H](CC(C)C)C(=O)N[C@@H](CC(C)C)C(=O)N[C@@H](CCCCN)C(=O)N[C@@H](CCCNC(=N)N)C(=O)N[C@H](C(=O)N[C@@H](CCCCN)C(=O)N[C@H](C(=O)N[C@@H](CC(C)C)C(=O)N[C@@H](CC(C)C)C(N)=O)[C@@H](C)O)[C@@H](C)CC (Lauroyl-GLLKRIKTLL-NH2)	11.38	16 (≈ 21.4 µg/mL)	64 (≈ 85.5 µg/mL)	16 (≈ 21.4 µg/mL)	32 (≈ 42.7 µg/mL)	128 (≈ 171 µg/mL)	–	–	–	–	–
CCCCCCCCC(=O)NCC(=O)N[C@@H](CC(C)C)C(=O)N[C@@H](CC(C)C)C(=O)N[C@@H](CCCCN)C(=O)N[C@@H](CCCNC(=N)N)C(=O)N[C@H](C(=O)N[C@@H](CCCCN)C(=O)N[C@H](C(=O)N[C@@H](CC(C)C)C(=O)N[C@@H](CC(C)C)C(N)=O)[C@@H](C)O)[C@@H](C)CC (Nonanoyl-GLLKRIKTLL-NH2)	–	–	–	–	–	–	4 (≈ 5.18 µg/mL)	8 (≈ 10.4 µg/mL)	16 (≈ 20.7 µg/mL)	8 (≈ 10.4 µg/mL)	8 (≈ 10.4 µg/mL)
CCCCCCCCCCCCC(=O)NCC(=O)N[C@@H](CC(C)C)C(=O)N[C@@H](CC(C)C)C(=O)N[C@@H](CCCCN)C(=O)N[C@@H](CCCNC(=N)N)C(=O)N[C@H](C(=O)N[C@@H](CCCCN)C(=O)N[C@H](C(=O)N[C@@H](CC(C)C)C(=O)N[C@@H](CC(C)C)C(N)=O)[C@@H](C)O)[C@@H](C)CC (Tridecanoyl-GLLKRIKTLL-NH2)	–	–	–	–	–	–	4 (≈ 5.4 µg/mL)	8 (≈ 10.8 µg/mL)	16 (≈ 21.6 µg/mL)	8 (≈ 10.8 µg/mL)	8 (≈ 10.8 µg/mL)
CCCCCC(=O)NCC(=O)N[C@@H](CC(C)C)C(=O)N[C@@H](CC(C)C)C(=O)N[C@@H](CCCCN)C(=O)N[C@@H](CCCNC(=N)N)C(=O)N[C@H](C(=O)N[C@@H](CCCCN)C(=O)N[C@H](C(=O)N[C@@H](CC(C)C)C(=O)N[C@@H](CC(C)C)C(=O)NCCCCC(NC(=O)[C@H](CC(C)C)NC(=O)[C@H](CC(C)C)NC(=O)[C@@H](NC(=O)[C@H](CCCCN)NC(=O)[C@@H](NC(=O)[C@H](CCCNC(=N)N)NC(=O)[C@H](CCCCN)NC(=O)[C@H](CC(C)C)NC(=O)[C@H](CC(C)C)NC(=O)CNC(=O)CCCCC)[C@@H](C)CC)[C@@H](C)O)C(N)=O)[C@@H](C)O)[C@@H](C)CC (stereo not given in full) (I: Hexanoyl-GLLKRIKTLL[ξK]-NH2 / II: Hexanoyl-GLLKRIKTLL; amide I:11-II:C)	6.08	8 (≈ 20.9 µg/mL)	4 (≈ 10.5 µg/mL)	8 (≈ 20.9 µg/mL)	16 (≈ 41.8 µg/mL)	8 (≈ 20.9 µg/mL)	–	–	–	–	–
I: Butyryl-GLLKRIKTLL[ξK][ξK]-NH2 / II: Butyryl-GLLKRIKTLL[ξK] / III: Butyryl-GLLKRIKTLL / IV: Butyryl-GLLKRIKTLL (amide I:11-IV:C, I:12-II:C, II:11-III:C)	1.06	16	8	16	8	32	–	–	–	–	–
I: H-GLLKRIKTLL[ξK][ξK]-NH2 / II: H-GLLKRIKTLL[ξK] / III: H-GLLKRIKTLL / IV: H-GLLKRIKTLL (amide I:11-IV:C, I:12-II:C, II:11-III:C)	1.31	8	8	8	8	16	–	–	–	–	–
